The source of these data is patent publication US20090074831A1, “LOCAL […] […] OF mTOR INHIBITORS IN COMBINATION WITH PEROXISOME PROLIFERATORS-ACTIVATED RECEPTOR STIMULATORS” (priority 2007, published 2009).

One data set relates to cell viability. Nature of the data set: cell viability assay. Type of data set: cell-based. The source says:
(§1) The multiple curves represent various concentrations of topotecan ranging from zero to three hundred nanomolar concentrations.
(§2) The multiple curves represent various concentrations of etoposide ranging from zero to eight hundred nanomolar concentrations.

For data set [1], the system named is human coronary artery smooth muscle cells. Description: Anti-proliferative activity in synchronized cultured human coronary artery smooth muscle cells stimulated with two percent fetal bovine serum. It is filed as cell-based. Conditions: for effect on anti-proliferative rapamycin dose response curves: leftward and upward shift.
Source text: as §1, §2
The multiple curves represent various concentrations of Panzem® ranging from zero to 100 micromolar concentrations.

Another data set deals with tumor cell lines. To be noted: Woo et al., J. Med Chem 2002; cited from earlier work.
Data set [2] has as its system human coronary artery smooth muscle cell. Nature of the data set: in vitro cell culture study, coronary artery smooth muscle cell proliferation (trichostatin A). Type of data set: cell-based. The text has this: FIG. 51 is a graph of the inhibition of coronary artery smooth muscle cells by trichostatin A in a cell culture study.
A short description of data set [3]: in vivo release kinetics from rapamycin / mycophenolic acid EVA/BMA coating, porcine pharmacokinetics studies. Conditions: EVA/BMA basecoat, 180 micrograms each drug, BMA topcoat 0, 100 or 200 micrograms.
The test system of data set [4] is human coronary artery smooth muscle cells. Nature of the data set: Anti-proliferative activity in non-synchronized cultured human coronary artery smooth muscle cells stimulated with two percent fetal bovine serum. It is filed as cell-based. The source says: The multiple curves represent various concentrations of mycophenolic acid ranging from zero to one thousand nanomolar concentrations.
FIG. 58 illustrates, in graphical format, the anti-proliferative activity of cladribine in non-synchronized cultured human coronary artery smooth muscle cells stimulated with two percent fetal bovine serum.
The multiple curves represent various concentrations of cladribine ranging from zero to nine hundred nanomolar concentrations.

Data set [5] relates to human coronary artery smooth muscle cell. To be noted: concentrations up to 30,000.00 nanomolar (6.6 to 30,000.00 nanomolar tested). The text has this:
In vitro cytotoxicity tests or assays may be utilized to determine if drugs, agents and/or compounds are potentially toxic and the level of toxicity. Essentially, in vitro cytotoxicity assays determine acute necrotic effects by a drug causing direct cellular damage. The idea behind these assays is that toxic chemicals affect basic functions of cells which are common to all cells. […] There are a number of different assays that may be utilized. In the present invention, the cytotoxicity assay utilized is based upon the measurement of cellular metabolic activity. A reduction in metabolic activity is an indication of cellular damage. Tests that can measure metabolic function measure cellular ATP levels or mitochondrial activity via MTS metabolism. FIG. 69 is a graphical representation of the results of an MTS assay of Panzem®.

For data set [6], the system named is human coronary artery smooth muscle cells. Description: antiproliferative effects of PX867 on cultured human coronary artery smooth muscle cells. Type of data set: cell-based. To be noted: PX867 alone, concentration of about 10^−6 (unit not given). The text has this:
A PI3 kinase inhibitor can affect restinosis when administered by local or systemic delivery alone or in combination with sirolimus. FIGS. 87 and 88 illustrate the antiproliferative effects of PX867 on cultured human coronary artery smooth muscle cells alone (FIG. 87) or in combination with sirolimus (FIG. 88). […] Curve 8702 illustrates the percent inhibition for various concentrations. In FIG. 88, the six curves 8802, 8804, 8806, 8808, 8810 and 8812 represent various concentrations of PX867 with various concentrations of sirolimus. […] More specifically, curve 8812 illustrates the percent inhibition for a 240 nM PX-867 concentration. […] This may be compared to curve 8804 which represents a 15 nM PX-867 concentration. As one can see, the percent inhibition increases as the concentration of sirolimus increases. Accordingly, a potent PI3 kinase inhibitor, such as PX-867, can improve the inhibition of coronary artery smooth muscle cell proliferation either as a stand alone treatment or via combination with another restenotic agent, such as sirolimus.

The nature of data set [7]: in vivo release kinetics from rapamycin / cladribine EVA/BMA coating, porcine pharmacokinetics studies. More on the design: species or system Yorkshire pigs. Conditions: EVA/BMA basecoat with 200 microgram BMA topcoat, Bx Velocity stents. The text has this: The basecoat is applied to Bx Velocity® stents and implanted into Yorkshire pigs.
The basecoat is applied to BxVelocity® stents and implanted into Yorkshire pigs.

For data set [8], the system named is human smooth muscle cells. Nature of the data set: Inhibition of human vascular cell proliferation with cladribine, PDGF-stimulated smooth muscle cells. It is filed as cell-based. How it is done: To assess the ability of cladribine to prevent cell proliferation, human smooth muscle or endothelial cells (Clonetics, Walkersville, Md.) were seeded at a density of 2000 cells/cm^2 (approximately 3600 cells/well) into each well of 12-well plates and cultured with 1.5 ml of growth medium containing five percent fetal calf serum (FCS). After twenty-four hours, the growth medium was changed and fresh medium containing 10 ng/ml platelet-derived growth factor AB (PDGF AB; LIFE Technologies), as well as various concentrations of cladribine (0.001-10,000 nM) were added with triplicate wells. Medium was replaced with fresh cladribine-containing medium after three days. On day six, cells were detached by trypsinization to yield a cell suspension, lightly centrifuged to pellet and then counted manually using a Neubauer hemocytometer system. Cell viability was assessed by trypan blue exclusion.

Data set [9] in a line: in vitro release of sirolimus and cilostazol from dual drug coating. It is filed as physicochemical. To be noted: single-layer sirolimus + cilostazol coating of FIG. 83.
Data set [10] in a line: drug concentration in liquid formulations (liquid chromatography / HPLC assay). To be noted: 4 mg/ml PEG 200 formulation. Type of data set: physicochemical. The source says:
In accordance with exemplary embodiments of the present invention, a series of liquid formulations were developed for the local or regional delivery of water insoluble compounds such as sirolimus and its analogs, including CCl-779, ABT-578 and everolimus, through weeping balloons and catheter injection needles. […] These liquid formulations increase the apparent solubility of the pharmacologically active but water insoluble compounds by two to four orders of magnitude as compared to the solubility limits of the compounds in water. These liquid formulations rely on the use of a very small amount of organic solvents such as Ethanol (typically less than two percent) and a larger amount of safe amphiphilic (of or relating to a molecule having a polar, water soluble group attached to a non-polar, water insoluble […]) excipients such as polyethylene glycol (PEG 200, PEG 400) and vitamin E TPGS to enhance the solubility of the compounds. These liquid formulations of highly water insoluble compounds are stable and readily flowable at room temperature. Certain excipients, such as Vitamin E TPGS and BHT may be utilized to enhance the storage stability of sirolimus compounds through their anti-oxidation properties. […]

Take `COc1cc([C@@H]2c3cc4c(cc3[C@@H](O[C@@H]3O[C@@H]5CO[C@@H](C)O[C@H]5[C@H](O)[C@H]3O)[C@H]3COC(=O)[C@H]23)OCO4)cc(OC)c1O` [etoposide]: in the data set with cell viability (concentrations up to ten micromolar), the cytotoxicity result is given as “non-cytotoxic”. Besides, in data set [1] (etoposide zero to eight hundred nanomolar added to rapamycin), the “effect on anti-proliferative rapamycin dose response curves” value is given as “potentiate the anti-proliferative activity of rapamycin”.

With `CC(/C=C/C(=O)NO)=C\[C@@H](C)C(=O)c1ccc(N(C)C)cc1` [trichostatin A], in the data set with tumor cell lines, the “anti-proliferative IC50's” value was “low nM range”. In addition, in [2], the “inhibition of human coronary artery smooth muscle cell proliferation” value is listed as “completely inhibit human coronary artery smooth muscle cell proliferation”. Also, the IC50 (in general, the point on the concentration scale where inhibition reaches its midpoint) in data set [2] (read-out: anti-proliferative IC50) was around 6 nM.

As for `COc1c(C)c2c(c(O)c1C/C=C(\C)CCC(=O)O)C(=O)OC2` [mycophenolic acid], the “in vivo elution compared with rapamycin” value in data set [3] was “elutes more completely over a shorter duration than the rapamycin”. The “effect on anti-proliferative rapamycin dose response curve” value in data set [4] (mycophenolic acid zero to one thousand nanomolar added to rapamycin, leftward and upward shift) is “potentiates the anti-proliferative activity of rapamycin”.

Turning to `COc1cc2c(cc1O)CC[C@@H]1[C@@H]2CC[C@]2(C)[C@@H](O)CC[C@@H]12` [Panzem®, 2-methoxyestradiol], the “cytotoxicity (MTS assay), cell survival” value in [5] is “do not reduce human coronary artery smooth muscle cell survival”. In addition, the anti-proliferative activity entry in [1] (Panzem alone) is “extremely effective inhibitor of human coronary artery smooth muscle cell proliferation in vitro”. For the same compound, in data set [1] (Panzem zero to 100 micromolar added to rapamycin), the “effect on percent inhibition by rapamycin” value is listed as “increases the percent of inhibition of rapamycin alone”.

`COC[C@H]1OC(=O)/C(=C\N2CCCC2)C2=C(O)C(=O)C3=C([C@H](OC(C)=O)C[C@]4(C)C(=O)CC[C@@H]34)[C@]21C` [PX867]: the “inhibition of coronary artery smooth muscle cell proliferation” value in [6] was “one hundred”.

For the compound `Nc1nc(Cl)nc2c1ncn2[C@H]1C[C@H](O)[C@@H](CO)O1` [Cladribine, 2-chlorodeoxyadenosine], the “inhibition of human coronary artery smooth muscle cell proliferation” value in [4] (cladribine alone) is listed as “completely inhibits human coronary artery smooth muscle cell proliferation”. In addition, the “effect on anti-proliferative rapamycin dose response curves” value in data set [4] (cladribine zero to nine hundred nanomolar added to rapamycin, leftward and upward shift) is reported as “does in fact potentiate the anti-proliferative activity of rapamycin”. In addition, the “in vivo elution compared with rapamycin” value in [7] was “elutes more rapidly than rapamycin”. In [8], the “potency as inhibitor of smooth muscle cells relative to endothelial cells” value is recorded as “approximately twice”.

Consider `CC[C@@]1(O)C(=O)OCc2c1cc1n(c2=O)Cc2cc3c(CN(C)C)c(O)ccc3nc2-1` [topotecan], for which the cytotoxicity result in the data set on cell viability (concentrations up to one micromolar) is reported as “non-cytotoxic”. The “effect on anti-proliferative rapamycin dose response curves” value in [1] (topotecan zero to three hundred nanomolar added to rapamycin) is “does in fact potentiate the anti-proliferative activity of rapamycin”.

Consider `O=C1CCc2cc(OCCCCc3nnnn3C3CCCCC3)ccc2N1` [cilostazol, 6[4-(1-cyclohexyl-1H-tetrazol-5-yl)-butoxy]-3,4-dihydro-2-(1H)-quinolinone], for which the in vitro release in data set [9] was around 35%.

Turning to `CO[C@H]1C[C@@H]2CC[C@@H](C)[C@@](O)(O2)C(=O)C(=O)N2CCCC[C@H]2C(=O)O[C@H]([C@H](C)C[C@@H]2CC[C@@H](O)[C@H](OC)C2)CC(=O)[C@H](C)/C=C(\C)[C@@H](O)[C@@H](OC)C(=O)[C@H](C)C[C@H](C)/C=C/C=C/C=C/1C` [rapamycin], in data set [10], the “concentration relative to the solubility of sirolimus in water” value is “four hundred to about one thousand”.
